Results taken from the supplement of paper PMC11061612.

Tests used:
Test in all cases: combination Emax (second highest fraction inhibited in the dose matrix, 72 h); higher = more inhibition; extreme values may be limits of the assay
[1] = tested on: CPC-N (Small Cell Lung Carcinoma)
In short: (§1)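 Cell lines in DMEM/F12 or RPMI with 10% FBS were plated in 1536-well plates, held 24 hours at 37°C, 5% CO2, then given two-drug dose matrices for 72 hours (DMSO typically 0.2%). Viability was read by CellTiter-Glo 2.0 luminescence and scaled as inhibition from 0 (vehicle wells) to 1 (blank wells). Combination Emax is the second-highest inhibition in the matrix; Bliss excess is observed combination effect minus expected EA + EB − EA·EB, EA and EB being single-agent effects.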

UACC-257 (Melanoma) = tested on: UACC-257 (Melanoma)
In short: as §1

[2] = tested on: OAW-28 (Ovarian Carcinoma)
In short: as §1

[3] = tested on: COR-L88 (Small Cell Lung Carcinoma)
In short: as §1

[4] = tested on: MOLT-13 (T-Lymphoblastic Leukemia)
In short: as §1

[5] = tested on: MDA-MB-415 (Breast Carcinoma)
In short: as §1

[6] = tested on: DBTRG-05MG (Glioblastoma)
In short: as §1

NCI-H226 (Mesothelioma) = tested on: NCI-H226 (Mesothelioma)
In short: as §1

[7] = tested on: NCI-H1876 (Small Cell Lung Carcinoma)
In short: as §1

[8] = tested on: PA-TU-8988T (Pancreatic Carcinoma)
In short: as §1

ES6 (Ewing's Sarcoma) = tested on: ES6 (Ewing's Sarcoma)
In short: as §1

[9] = tested on: SNU-407 (Colorectal Carcinoma)
In short: as §1

[10] = tested on: P30-OHK (B-Lymphoblastic Leukemia)
In short: as §1

[11] = tested on: P32-ISH (Burkitt's Lymphoma)
In short: as §1

[12] = tested on: SNU-C2B (Colorectal Carcinoma)
In short: as §1

[13] = tested on: SAT (Head and Neck Carcinoma)
In short: as §1

[14] = tested on: CL-11 (Colorectal Carcinoma)
In short: as §1

[15] = tested on: NCI-H1963 (Small Cell Lung Carcinoma)
In short: as §1

[16] = tested on: SUP-M2 (T-Cell Non-Hodgkin's Lymphoma)
In short: as §1

| SMILES | combination Emax [1] | combination Emax (UACC-257 (Melanoma)) | combination Emax [2] | combination Emax [3] | combination Emax [4] | combination Emax [5] | combination Emax [6] | combination Emax (NCI-H226 (Mesothelioma)) | combination Emax [7] | combination Emax [8] | combination Emax (ES6 (Ewing's Sarcoma)) | combination Emax [9] | combination Emax [10] | combination Emax [11] | combination Emax [12] | combination Emax [13] | combination Emax [14] | combination Emax [15] | combination Emax [16] |
| --- | --- | --- | --- | --- | --- | --- | --- | --- | --- | --- | --- | --- | --- | --- | --- | --- | --- | --- | --- |
| NC1(C(=O)N[C@@H](CCO)c2ccc(Cl)cc2)CCN(c2ncnc3[nH]ccc23)CC1 [Capivasertib] + CC(C)n1c(=O)n(C)c2cnc3cc(F)c(-c4ccc(OCCCN5CCCCC5)nc4)cc3c21 [AZD1390] (first compound max 10 µM, 7x7, partner max 0.3 µM) | 0.399 | 0.26 | 0.119 | 0.0851 | 0.132 | 0.846 | 0.243 | 0.335 | 0.172 | 0.278 | 0.349 | 0.503 | 0.176 | 0.557 | 0.303 | 0.555 | 0.223 | 0.434 | 0.19 |
| NC1(C(=O)N[C@@H](CCO)c2ccc(Cl)cc2)CCN(c2ncnc3[nH]ccc23)CC1 [Capivasertib] + CCN(CCO)CCCOc1ccc2c(Nc3cc(CC(=O)Nc4cccc(F)c4)[nH]n3)ncnc2c1 [AZD2811] (first compound max 10 µM, 7x7, partner max 1 µM) | 0.781 | 0.394 | 0.249 | 0.253 | 0.992 | 0.837 | 0.317 | 0.311 | 0.941 | 0.546 | 0.418 | 0.714 | 0.886 | 0.951 | 0.329 | 0.502 | 0.272 | 0.93 | 0.992 |
| NC1(C(=O)N[C@@H](CCO)c2ccc(Cl)cc2)CCN(c2ncnc3[nH]ccc23)CC1 [Capivasertib] + COc1nnc2ccc(N3CCC(c4ccc(OCCN5CCN(C)C(=O)[C@H]5C)cc4)CC3)nn12 [AZD5153] (first compound max 10 µM, 7x7, partner max 1 µM) | 0.811 | 0.355 | 0.493 | 0.496 | 0.873 | 0.9 | 0.206 | 0.402 | 0.579 | 0.798 | 0.518 | 0.882 | 1 | 1 | 0.54 | 0.811 | 0.688 | 0.767 | 0.915 |
| NC1(C(=O)N[C@@H](CCO)c2ccc(Cl)cc2)CCN(c2ncnc3[nH]ccc23)CC1 [Capivasertib] + C[C@@H]1COCCN1C2=NC(=NC(=C2)C3(CC3)[S@](=N)(=O)C)C4=C5C=CNC5=NC=C4 [AZD6738] (first compound max 10 µM, 7x7, partner max 10 µM) | 0.894 | 0.389 | 0.515 | 0.435 | 0.957 | 0.846 | 0.372 | 0.358 | 0.934 | 0.625 | 0.667 | 0.82 | 0.936 | 0.927 | 0.647 | 0.579 | 0.718 | 0.885 | 1 |
| NC1(C(=O)N[C@@H](CCO)c2ccc(Cl)cc2)CCN(c2ncnc3[nH]ccc23)CC1 [Capivasertib] + Cn1cnc2c(F)c(Nc3ccc(Br)cc3Cl)c(C(=O)NOCCO)cc21 [Selumetinib] (first compound max 10 µM, 7x7, partner max 10 µM) | 0.332 | 0.731 | 0.268 | 0.257 | 0.555 | 0.85 | 0.431 | 0.316 | 0.239 | 0.689 | 0.434 | 0.767 | 0.186 | 0.489 | 0.388 | 0.677 | 0.8 | 0.492 | 0.507 |
| Cc1nc(Nc2ncc(C(=O)Nc3c(C)cccc3Cl)s2)cc(N2CCN(CCO)CC2)n1 [Dasatinib] + CC(=O)Nc1cccc(-n2c(=O)n(C3CC3)c(=O)c3c(Nc4ccc(I)cc4F)n(C)c(=O)c(C)c32)c1 [Trametinib] (first compound max 2 µM, 7x7, partner max 1 µM) | 0.0279 | 0.644 | 0.524 | 0.2 | 0.559 | 0.385 | 0.556 | 0.458 | 0.165 | 0.887 | 0.439 | 0.756 | 0.202 | 0.411 | 0.66 | 0.826 | 0.961 | 0.38 | 0.126 |
